Drawing on ChEMBL document CHEMBL1649492, “Population modeling and Monte Carlo simulation study of the pharmacokinetics and antituberculosis pharmacodynamics of rifampin in lungs” (Antimicrob Agents Chemother, 2009), this text covers RatioAUC/MIC and Vd for one compound.

Data set [1] is described as follows: Ratio of AUC (0 to 24 hrs) to MIC in plasma of patient with Mycobacterium tuberculosis infection at […], po administered as single dose. The format is functional.
The nature of data set [2]: Volume of distribution in epithelial lining fluid of patient with tuberculosis at […], po administered as single dose. Format: ADME, organism-based. Further details: route oral. As to conditions: human, in vivo.
The nature of data set [3]: Ratio of AUC (0 to 24 hrs) to MIC in epithelial lining fluid of patient with Mycobacterium tuberculosis infection at […], po administered as single dose. The format is functional.
Data set [4] can be described thus: Volume of distribution in alveolar cells of patient with tuberculosis at […], po administered as single dose. Further details: route oral. Format: ADME, organism-based, Pneumocyte. As to conditions: human, in vivo.
The test system of another data set is Homo sapiens. Put plainly: Volume of distribution in patient with tuberculosis at […], po administered as single dose. The format is ADME, organism-based. Further details: route oral. As to conditions: in vivo.

Several values for one entry are separate records, joined by “and”; a condition that tells them apart may be missing. Equal values may be shown once.

For the compound `CO[C@H]1/C=C/O[C@@]2(C)Oc3c(C)c(O)c4c(O)c(c(/C=N/N5CCN(C)CC5)c(O)c4c3C2=O)NC(=O)/C(C)=C\C=C\[C@H](C)[C@H](O)[C@@H](C)[C@@H](O)[C@@H](C)[C@H](OC(C)=O)[C@@H]1C` [RIFAMPIN], the RatioAUC/MIC entry is “>=271” in data set [1] and “>=665” in data set [3]. For the same compound, the Vd was 102.6 L and 102.8 L and 52.1 L in data set [2]; 49.94 L and 43.66 L and 33.65 L in data set [4]; 11.56 L and 10.16 L and 8.05 L in the data set on Homo sapiens.
